A short description of data set [1]: physchem. Conditions: octanol/water.
Description: Octanol-water partition coefficient, log P of the compound
The test system of data set [2] is Human immunodeficiency virus 1. In words: microbe, parasite or virus in culture. Conditions: Human immunodeficiency virus 1, read-out: pIC50 (converted).
Description: Antiviral activity against wild type Human immunodeficiency virus 1

A word on the logP: it is the decadic logarithm of the partition coefficient of the neutral form, usually between octanol and water. Read a low logP as a more hydrophilic compound.

Turning to `N=C(Cc1c(Cl)cccc1Cl)NC(=S)Nc1ccccc1`, the lipophilicity (logP) in data set [1] worked out at 3.67. The IC50 in data set [2] was 123 nM.

Regarding `N=C(Cc1c(Cl)cccc1Cl)NC(=S)NCc1ccc(Cl)cc1`, the logP in data set [1] came out at 5.97. Further, in data set [2], the IC50 was 692 nM.

Consider `Cc1ccccc1CC(=N)/N=C(\S)Nc1ccc(C#N)cc1`, for which the logP in data set [1] was 3.13. Also, the IC50 in data set [2] was 26 nM.

Take `N#Cc1ccc(NC(=S)NC(=N)CCc2c(Cl)cccc2Cl)cc1`: in data set [1], the logP is 5.79. The IC50 in data set [2] is 525 nM.

The compound `N#Cc1ccc(NC(=S)NC(=N)Cc2ccc(Cl)cc2)cc1` came in with a logP in data set [1] of 3.19. Besides, the IC50 in data set [2] was 148 nM.

In data set [1], `N#Cc1ccc(NC(=S)NC(=N)C2(c3c(Cl)cccc3Cl)CC2)cc1` yielded a logP of 6.11. Further, the IC50 in data set [2] is 676 nM.

In the case of `CN(C)C(Cc1c(Cl)cccc1Cl)NC(=N)Nc1ccc(C#N)cc1` (stereo not drawn), in data set [1], the log partition coefficient (logP) was found to be 7.06. Besides, the IC50 in data set [2] is 757 nM.

As to `N#Cc1ccc(NC(=S)NC(=N)Cc2ccccc2)cc1`, the logP in data set [1] worked out at 2.67. Also, the IC50 in data set [2] is 380 nM.

Regarding `N=C(Cc1c(Cl)cccc1Cl)NC(=S)Nc1ccc(Cl)cc1Cl`, the logP in data set [1] worked out at 4.7. Further, the IC50 in data set [2] is 347 nM.

Consider `CCN/C(Cc1c(Cl)cccc1Cl)=N\C(S)=N\c1ccc(C#N)cc1`, for which the logP in data set [1] came out at 5.77. In data set [2], the IC50 was 195 nM.

In data set [1], `N#Cc1ccc(NC(=O)NC(=N)Cc2c(Cl)cccc2Cl)cc1` registered a logP of 3.71. The IC50 in data set [2] is 15 nM.

Compound `CN(C)C(Cc1c(Cl)cccc1Cl)/N=C(\S)Nc1ccc(C#N)cc1` (stereo not drawn) displayed a logP in data set [1] of 5.64.

`N#Cc1ccc(NC(=S)NC(=N)Cc2c(Cl)ccc(Cl)c2Cl)cc1` yielded a logP in data set [1] of 4.22. Also, the IC50 in data set [2] is 5 nM.

As for `N#Cc1ccc(NC(=S)NC(=N)Cc2cccc(Cl)c2)cc1`, in data set [1], the logP worked out at 3.19. The IC50 in data set [2] was 67.9 nM.

As for `N#Cc1cccc(NC(=S)NC(=N)Cc2c(Cl)cccc2Cl)c1`, the logP in data set [1] is 3.7. In addition, the IC50 in data set [2] is 126 nM.

The compound `N#Cc1ccc(NC(=S)NC(=N)Cc2ccccc2Cl)cc1` came in with a logP in data set [1] of 3.19. In addition, the IC50 in data set [2] was 14 nM.

The compound `N#Cc1ccc(NC(=S)NC(=N)c2c(Cl)cccc2Cl)cc1` registered a log partition coefficient (logP) in data set [1] of 5.46. Besides, in data set [2], the IC50 is 43.7 nM.

For `N#Cc1ccc(NC(=S)NC(=N)Cc2ccc(Cl)cc2Cl)cc1`, in data set [1], the logP was found to be 3.7. Moreover, in data set [2], the IC50 was 7 nM.

Turning to `CC(C(=N)/N=C(\S)Nc1ccc(C#N)cc1)c1c(Cl)cccc1Cl` (stereo not drawn), the logP in data set [1] worked out at 5.95. The IC50 in data set [2] is 158 nM.

Compound `N#C/N=C(\NCCc1ccc(C#N)cc1)N/C(Cc1c(Cl)cccc1Cl)=N\c1ccccc1` had a logP in data set [1] of 5.98. Besides, in data set [2], the IC50 was 158 nM.

`COc1ccccc1CC(=N)/N=C(\S)Nc1ccc(C#N)cc1` had a logP in data set [1] of 2.42. Moreover, the IC50 in data set [2] was 30 nM.

`N#Cc1ccc(N/C(S)=N/C(=N)Cc2c(F)cccc2F)cc1` had a logP in data set [1] of 2.95. The IC50 in data set [2] was 6 nM.

`C/N=C(/Cc1c(Cl)cccc1Cl)NC(=O)Nc1ccc(C#N)cc1`: in data set [1], the logP was determined as 5.96. Also, in data set [2], the IC50 is 214 nM.

`N#Cc1ccc(NC(=S)NC(=N)Cc2c(Cl)cccc2Cl)cc1` showed a logP in data set [1] of 4.83. Also, in data set [2], the IC50 is 126 nM.

`N=C(Cc1c(Cl)cccc1Cl)NC(=S)NCCc1ccc(Cl)cc1` came in with a logP in data set [1] of 6.22. For the same compound, the IC50 in data set [2] was 617 nM.

Regarding `CN/C(Cc1c(Cl)cccc1Cl)=N\C(S)=N\c1ccc(C#N)cc1`, the logP in data set [1] is 6.75. The IC50 in data set [2] is 77.4 nM.

The compound `N=C(Cc1c(Cl)cccc1Cl)NC(=S)Nc1ccc(Cl)cc1` yielded a logP in data set [1] of 4.19. Also, in data set [2], the IC50 was 13 nM.

Source of the values: ChEMBL document CHEMBL3046335, “Prediction of anti-HIV activity of imidoyl thioureas: QSAR approach” (Med Chem Res, 2009).
